Results on two compounds are retold here after patent US20190290656A1, “PT(IV) PRODRUGS” (YISSUM RESEARCH DEVELOPMENT COMPANY OF THE HEBREW …, priority 2015, published 2019).

Data set [1] can be described thus: octanol/water partition, shake-flask method. Type of data set: physicochemical. The protocol:
To quantify the hydrophobicity of the platinum complexes, partition coefficients (log P) values for octanol/water partition were measured using the shake-flask method.

Another data set concerns A549 cells. Put plainly: MTT cytotoxicity assay, A549. The following applies: A549, 72 h exposure, MTT; read-out: IC50 (median growth inhibitory concentration). Type of data set: cell-based, human. The protocol: Cisplatin (CDDP) and oxaliplatin (OXP) were dissolved just before the experiment in a 0.9% NaCl solution.
Human prostate adenocarcinoma (PC3) cells were obtained from European Collection of Cell Cultures (ECACC, Salisbury, UK). Human ovarian cancer cell lines A2780 and its cisplatin resistant variant, A2780cisR, were kindly provided by Prof.
Triplicate cultures were established for each treatment.

A short description of data set [2]: Stability in phosphate buffer (NMR). Type of data set: physicochemical. The following applies: phosphate buffer pH 7, 37° C. How it is done: A solution 2.0 mM of 3a (Scheme 4) in sodium phosphate buffer (50 mM, pH=7) was kept at 37° C. for 3 days. NMR and HPLC measurements were performed every day.
A 2.0 mM solution of 3a in phosphate buffer at pH=7 was kept at 37° C. in order to assay its stability by mean of NMR spectroscopy (FIG. 7). […] The signal at 7.40 ppm was assigned to the amidic proton. The signals at 7.18 and 6.48 belong to the aromatic ring of the coordinated phenylbutyrate. The large difference in chemical shifts between the 2 ortho protons of the phenyl ring and the 3 meta and para protons, coupled with the unusually low chemical shifts for the aromatic ortho protons, indicates a strong intramolecular interaction with the phenanthroline. Finally, the peak at 6.37 belongs to the coordinated DCA.

The nature of data set [3]: Reduction in buffer in the presence of ascorbic acid. Format: physicochemical. The conditions noted are these: 1 Eq ascorbic acid, phosphate buffer, RT, 2 hours. The protocol:
A solution 2.0 mM of 3a (Scheme 4) in buffer was treated with 1 Eq ascorbic acid. NMR measurements were performed over a 2 hour time frame.
In order to assay which of the two Pt metal centers of 3a is more prone to be reduced, we added 1 Eq of ascorbic acid to a solution of 3a in phosphate buffer. […] Finally, we carried out the reaction at RT and not at 37° C. to avoid a fast reduction process that would have made more complicated its study.
The reaction was monitored by ^1H NMR spectroscopy (FIG. 9). Already after 2 min, time needed to prepare the sample and start the NMR experiment, besides the signals belonging to 3a, previously discussed, it was possible to note the signal belonging to [Pt(DACH)(56Phen)]^2+, free phenyl butyric acid and a signal at 6.34 ppm, consistent with a DCA moiety coordinated to a Pt(IV) metal center. These signals indicated the reduction of the phenanthroline-bonded Pt unit of 3a to [Pt(DACH)(56Phen)]^2+, and the release of the axial ligands, […] and c,c,t-[Pt(NH3)2(DCA)(OOCCH2CH2CH2NHCOCH2CH2COOH)] (5). We were not able to isolate the latter species. […] The reaction was monitored for about 2 hours. In FIG. 9 are reported the spectra recorded after 9, 21 and 59 min. In the second hour, no changes were detected.

For data set [4], the system named is PSN-1 cells. Nature of the data set: Nuclear DNA fragmentation ELISA, PSN-1. The following applies: 48 h, IC50. Format: cell-based, human. The protocol:
FIGS. 13A-13B provide: FIG. 13A) Cytochrome c release. […] FIG. 13B) Nuclear DNA fragmentation. […] Quantitative estimation of DNA fragmentation was obtained with an ELISA test. Data are the means of five independent experiments. Error bars indicate SD.
After 48 h of treatment a roughly 20-fold increase in histone-DNA formation was detected with 3a with respect to controls.

Data set [5] concerns six human cancer cell lines. Nature of the data set: MTT cytotoxicity, over six human cancer cell lines. Format: cell-based. The conditions noted are these: on average over tested cell lines. The protocol: MTT assay. […] Triplicate cultures were established for each treatment.
The two dimers, 3a and 3b, as well as compounds 1a and 2a were screened against six human cancer cell lines representative of lung (H157), colon (HCT-15), cervical (A431), ovarian (2008) and pancreatic (PSN1) cancers, along with melanoma (A375). Cytotoxicity was evaluated by means of the MTT test after 72 h of treatment and the in vitro antitumor potential of newly synthesized derivatives was compared to that of the reference metallo-drugs CDDP and OXP.

A further data set relates to 2008 cells. Nature of the data set: Glycolysis (Mito-ID O2 sensor), 2008. Format: cell-based, human. The conditions noted are these: IC50 concentrations, 24 h. How it is done:
Glycolysis. The cellular glycolytic activity was assessed using the Mito-ID® O2 Extracellular Sensor Kit according to the manufacturer's instructions (Enzo Life Sciences, Farmingdale, N.Y.). Briefly, PSN-1 cells (15·10^3 per well) were seeded in 96-well plates. After 24 h, cells were treated with Mito-ID® O2 Sensor Probe Solution containing the tested compounds at the appropriate concentration. Fluorescence was estimated using a plate reader (Fluoroskan Ascent FL, Labsystem, Finland) at 350 nm (excitation) and 610 nm (emission).
Based on the above findings, we investigated the effects determined by derivatives 3a and 3b on 2008 and PSN-1 cancer cell aerobic glycolysis and mitochondria function.
However, these effects were magnified in PSN-1 cells, having reduction of cellular glycolytic activity of about 36 and 20% for 3a and 3b, respectively. […] This latter result could be explained tacking into consideration that the reference compound [Pt(DACH)(56Phen)] itself, that is also released upon reduction of 3a and 3b, is effective in hampering cellular glycolysis in both tested cancer cell lines. The difference between 3a and 3b might be attributed to the added effect of DCA.

Data set [6] has as its system PSN-1 cells. Nature of the data set: Mitochondrial membrane potential (Mito-ID), PSN-1. Type of data set: cell-based, human. The conditions noted are these: 12 h of incubation. How it is done:
Mitochondrial membrane potential (ΔΨ). ΔΨ was assayed using the Mito-ID Membrane Potential Kit according to the manufacturer's instructions (Enzo Life Sciences, Farmingdale, N.Y.). Briefly, 2008 and PSN1 cells were seeded onto 96-well microplates at 5.10^4 cells/well. After 24 h, cells were treated with tested compounds for 6, 12 and 24 h. The mitochondrial depolarizing agent, carbonyl cyanide 3-chlorophenylhydrazone (CCCP) was employed as positive control. An equal volume of cationic dye loading solution was added to each well and cell plates were incubated for additional 30 min at 37° C. Plates were read at excitation/emission wavelengths 490 and 590 nm using a fluorescence microplate reader (Fluoroskan Ascent FL, Labsystem, Finland).
In addition, it is interesting to note that treatment of 2008 and PSN-1 cells with 3a and 3b determined a significant time-dependent increase in the number of cells with depolarized mitochondria (data not shown). In particular, after 12 h of incubation, 3a elicited an increase of about 39% of PSN-1 cells with depolarized mitochondrial potential FIG. 12B). Again, the reference compound [Pt(DACH)(56Phen)] was effective in hampering cellular mitochondrial membrane potential in both tested cancer cell lines.

As for `[NH2][Pt]([NH2])([Cl])[Cl]` [CDDP, Cisplatin, reference compound], the “Log P” value in data set [1] is −2.25 ± 0.04. In addition, in the data set with A549 cells, the IC50 came out at 8.35 ± 0.87 µM.

On to “c,c,t,t,c,c-[(DACH)(56Phen)(PhBu)Pt(μ-OOC—(CH2)2—CONH(CH2)3COO)—Pt(DCA)(NH3)2 (Cl2)](TFA)2 [Compound 3a]”, for which the “Pt(IV)-phen reduced” value in data set [2] (after 2 days) is “about 9%”; in data set [2] (after 3 days), 10%; in data set [2] (after one day), “approximately 6.5%”. Also, in data set [2] (after a day), the “Pt(IV)-cisPt NMR signal (1101 ppm) relative to Pt(IV)-phen signal (703 ppm)” value amounted to 15%. The “reduction by ascorbic acid (in words)” value in data set [3] is “faster reduction of the phenanthroline-bonded Pt unit”. The “fold increase in histone-DNA formation with respect to controls” value in the data set with PSN-1 cells [4] is “roughly 20 fold”. Besides, the “times more potent than compound 3b” value in data set [5] is listed as “about 12 fold”. Moreover, in the data set with 2008 cells, the “reduction of glycolysis processes compared with untreated control cells” value is on record as “about 25%”. For the same compound, the “increase of cells with depolarized mitochondrial potential” value with PSN-1 cells [6] is listed as “about 39%”.
